Test results reported in patent US9497970B2, “Pesticide compounds” (priority 2013, dated 2016).
Like-named read-outs stand apart in the source and are kept apart here.

Experiments:
Type in all cases: in vivo
[1] = tested on: Tobacco Budworm (Heliothis virescens); experiment: B.7 Tobacco Budworm (Heliothis virescens) I, microtiter plate insect diet; conditions: 120 h, read-out: mortality (egg and larval)
Outline: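 96-well plates with insect diet and 15-25 H. virescens eggs; compounds in 75% water/25% DMSO sprayed onto diet at several concentrations, two replicates. Plates held at about 28±1° C. and 80±5% relative humidity for 5 days, then egg and larval mortality scored visually.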

[2] = tested on: Southern Armyworm (Spodoptera eridania), 2nd Instar Larvae; experiment: B.10 Southern Armyworm (Spodoptera eridania), 2nd Instar Larvae, sprayed lima bean plants; conditions: 96 h
Outline: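 Lima bean plants at 1st true leaf stage sprayed electrostatically with compound in 50% acetone:50% water plus 0.01% nonionic surfactant, then infested with about 10 to 11 2nd instar larvae. Mortality and reduced feeding assessed 4 days after treatment at about 25° C versus untreated plants.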

[3] = tested on: Vetch Aphid (Megoura viciae); experiment: B.8 Vetch Aphid (Megoura viciae), broad bean leaf disks; conditions: foliar, 120 h
Protocol: B.8 Vetch Aphid (Megoura viciae)
For evaluating control of vetch aphid (Megoura viciae) through contact or systemic means the test unit consisted of 24-well-microtiter plates containing broad bean leaf disks.
The compounds were formulated using a solution containing 75% v/v water and 25% v/v DMSO. Different concentrations of formulated compounds were sprayed onto the leaf disks at 2.5 μl, using a custom built micro atomizer, at two replications.
After application, the leaf disks were air-dried and 5-8 adult aphids placed on the leaf disks inside the microtiter plate wells. The aphids were then allowed to suck on the treated leaf disks and incubated at about 23±1° C. and about 50±5% relative humidity for 5 days. Aphid mortality and fecundity was then visually assessed.

[4] = tested on: Mediterranean Fruitfly (Ceratitis capitata); experiment: B.6 Mediterranean Fruitfly (Ceratitis capitata), microtiter plate insect diet; conditions: 120 h, read-out: mortality (egg and larval)
Outline: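 Insect diet with 50-80 C. capitata eggs sprayed with compounds formulated in 75% water/25% DMSO, at different concentrations, two replications. Incubation at about 28±1° C and 80±5% relative humidity for 5 days, then egg and larval mortality assessed visually.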

[5] = tested on: Yellow Fever Mosquito (Aedes aegypti); experiment: whole plant or invertebrate; conditions: 48 h, freshly hatched larvae in tap water, 2 days, in comparison with untreated controls, read-out: mortality (larval)
Outline: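 Freshly hatched A. aegypti larvae, 5–15 per well, were held in 200 μl tap water. Compounds formulated in 75:25 water:DMSO were sprayed at various concentrations, 2.5 μl per well by micro-atomizer, in two replicates.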

[6] = tested on: Orchid thrips (dichromothrips corbetti); experiment: B.12 Orchid thrips (dichromothrips corbetti), floral-immersion technique; conditions: adult thrips on dipped orchid petals, 72 hours after treatment, in comparison with untreated controls
Outline: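 Whole orchid flower petals were dipped in compound in 1:1 acetone:water with 0.01% v/v Kinetic HV, dried, and enclosed with about 20 adult thrips. They were held under continuous light at about 28° C. Live thrips were counted and percent mortality recorded at 72 hours.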

[7] = tested on: Boll Weevil (Anthonomus grandis); experiment: B.3 Boll Weevil (Anthonomus grandis), microtiter plate insect diet; conditions: 120 h, read-out: mortality (egg and larval)
Outline: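 Compounds in 25% DMSO/water sprayed at several concentrations onto insect diet in microtiter wells holding 5–10 A. grandis eggs, two replicates. Plates kept 5 days at about 25±1 °C and 75±5% RH. Egg and larval mortality scored visually.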

[8] = tested on: Silverleaf Whitefly (Bemisia argentifoli); experiment: B.5 Silverleaf Whitefly (Bemisia argentifoli), sprayed cotton plants; conditions: 72 h, whitefly adults on sprayed cotton plants, 3 days after treatment, in comparison with untreated controls
Protocol: B.5 Silverleaf Whitefly (Bemisia argentifoli)
The active compounds were formulated by a Tecan liquid handler in 100% cyclohexanone as a 10,000 ppm solution supplied in tubes. The 10,000 ppm solution was serially diluted in 100% cyclohexanone to make interim solutions. These served as stock solutions for which final dilutions were made by the Tecan in 50% acetone:50% water (v/v) into 5 or 10 ml glass vials. A nonionic surfactant (Kinetic®) was included in the solution at a volume of 0.01% (v/v). The vials were then inserted into an automated electrostatic sprayer equipped with an atomizing nozzle for application to plants/insects.
Cotton plants at the cotyledon stage (one plant per pot) were sprayed by an automated electrostatic plant sprayer equipped with an atomizing spray nozzle. The plants were dried in the sprayer fume hood and then removed from the sprayer. Each pot was placed into a plastic cup and about 10 to 12 whitefly adults (approximately 3-5 days old) were introduced. The insects were collected using an aspirator and a nontoxic Tygon® tubing connected to a barrier pipette tip. The tip, containing the collected insects, was then gently inserted into the soil containing the treated plant, allowing insects to crawl out of the tip to reach the foliage for feeding. Cups were covered with a reusable screened lid. Test plants were maintained in a growth room at about 25° C. and about 20-40% relative humidity for 3 days, avoiding direct exposure to fluorescent light (24 hour photoperiod) to prevent trapping of heat inside the cup. Mortality was assessed 3 days after treatment, compared to untreated control plants.

[9] = tested on: Diamond Back Moth (Plutella xylostella); experiment: B.1 Diamond Back Moth (Plutella xylostella), cabbage leaf dip; conditions: foliar
Outline: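 Cabbage leaves dipped in compound in 1:1 water:acetone with 0.01% Kinetic HV surfactant, air-dried, then infested with ten 3rd-instar larvae on moist filter paper. Mortality scored at 72 h after treatment; feeding damage rated on a 0-100% scale.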

[10] = tested on: Orchid thrips (dichromothrips corbetti); experiment: B.2 Orchid thrips (dichromothrips corbetti), floral-immersion technique; conditions: adult thrips on dipped orchid petals, 72 hours after treatment, in comparison with untreated controls
Protocol: B.2 Orchid thrips (dichromothrips corbetti)
Dichromothrips corbetti adults used for bioassay were obtained from a colony maintained continuously under laboratory conditions. For testing purposes, the test compound is diluted in a 1:1 mixture of acetone:water (vol:vol), plus Kinetic HV at a rate of 0.01% v/v.
Thrips potency of each compound was evaluated by using a floral-immersion technique. All petals of individual, intact orchid flowers were dipped into treatment solution and allowed to dry in Petri dishes. Treated petals were placed into individual resealable plastic along with about 20 adult thrips. All test arenas were held under continuous light and a temperature of about 28° C. for duration of the assay. After 3 days, the numbers of live thrips were counted on each petal. The percent mortality was recorded 72 hours after treatment.

[11] = tested on: Green Peach Aphid (Myzus persicae); experiment: B.9 Green Peach Aphid (Myzus persicae), sprayed bell pepper plants; conditions: 120 h, infested bell pepper plants sprayed, after 5 days, in comparison with untreated controls
Outline: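 Bell pepper plants at first true-leaf stage, infested with 30-50 aphids each, were sprayed electrostatically with compound in 50% acetone:water plus 0.01% nonionic surfactant. Held at about 25° C, 24-hr light, 20-40% RH. Mortality versus untreated controls scored after 5 days.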

[12] = tested on: Cowpea Aphid (aphis craccivora); experiment: B.4 Cowpea Aphid (aphis craccivora), sprayed potted cowpea plants; conditions: after 72 hours, in comparison with untreated controls
Protocol: B.4 Cowpea Aphid (aphis craccivora)
The active compound is dissolved at the desired concentration in a mixture of 1:1 (vol:vol) distilled water:acetone. Surfactant (Kinetic HV) is added at a rate of 0.01% (vol/vol). The test solution is prepared at the day of use.
Potted cowpea plants were colonized with approximately 50-100 aphids of various stages by manually transferring a leaf tissue cut from infested plant 24 hours before application. Plants were sprayed after the pest population has been recorded. Treated plants are maintained on light carts at about 28° C. Percent mortality was assessed after 72 hours.

[13] = 800 ppm, sprayed onto insect diet, 5 days, in comparison with untreated controls
[14] = 300 ppm, larvae on sprayed lima bean plants, 4 days after treatment, in comparison with untreated controls, read-out: mortality
[15] = 2500 ppm, adult aphids on sprayed leaf disks, 5 days, in comparison with untreated controls, read-out: mortality
[16] = 500 ppm, 3rd instar larvae on dipped cabbage leaves, 72 hours after treatment, in comparison with untreated controls, read-out: mortality

CC(C)c1ccccc1N1CCSC1=N/N=C/c1ccc2c(ccc3c2ncn3-c2ccc(OC(F)(F)F)cc2)c1 (stereo in doubt) [C-53, (E)-3-(2-isopropylphenyl)-N-[(E)-[3-[4-(trifluoromethoxy)phenyl]benzo[e]benzimidazol-7-yl]methyleneamino] thiazolidin-2-imine]
≥ 75%: mortality at 800 ppm [1, 13] | mortality at 300 ppm [2, 14] | mortality at 2500 ppm [3, 15] | mortality at 800 ppm [4, 13] | mortality at 800 ppm [5] | mortality at 500 ppm [6] | mortality at 800 ppm [7, 13] | mortality at 300 ppm [8] | mortality at 500 ppm [9, 16]

Cc1cccc(C)c1NC(=S)N/N=C/c1ccc2c(ccc3c2ncn3-c2ccc(OC(F)(F)F)cc2)c1 [C-1, 1-(2,6-dimethylphenyl)-3-[(E)-[3-[4-(trifluoromethoxy)phenyl]benzo[e]benzimidazol-7-yl]methyleneamino]thiourea]
≥ 75%: mortality at 800 ppm [1, 13] | mortality at 300 ppm [2, 14] | mortality at 300 ppm [10] | mortality at 800 ppm [4, 13] | mortality at 800 ppm [5] | mortality at 500 ppm [6] | mortality at 800 ppm [7, 13] | mortality at 800 ppm [11] | mortality at 500 ppm [9, 16]

Cc1ccccc1NC(=S)N/N=C/c1ccc2c(c1)CCc1c-2nnn1-c1ccc(OC(F)(F)F)cc1 [C-34, 1-(o-tolyl)-3-[[3-[4-(trifluoromethoxy)phenyl]-5,8-dihydro-4H-benzo[e]benzotriazol-7-ylidene]methylimino] thiourea]
≥ 75%: mortality at 800 ppm [4, 13] | mortality at 500 ppm [12]

O=[N+]([O-])c1ccccc1NC(=S)N/N=C/c1ccc2c(c1)CCc1c-2nnn1-c1ccc(OC(F)(F)F)cc1 [C-43, 1-(2-nitrophenyl)-3-[[3-[4-(trifluoromethoxy)phenyl]-5,6-dihydro-4H-benzo[e]benzotriazol-7-ylidene]methylimino]thiourea]
≥ 75%: mortality at 2500 ppm [3, 15] | mortality at 800 ppm [11]

CC(OC(=O)Nc1ccc2c(ccc3c2ncn3-c2ccc(OC(F)(F)F)cc2)c1)c1ccc(Cl)cn1 (stereo not shown) [C-56, 1-(5-chloro-2-pyridyl)ethyl N-[3-[4-(trifluoromethoxy)phenyl]benzo[e]benzimidazol-7-yl]carbamate]
≥ 75%: mortality at 800 ppm [1] | mortality at 300 ppm [2] | mortality at 2500 ppm [3] | mortality at 800 ppm [4] | mortality at 800 ppm [5] | mortality at 800 ppm [7] | mortality at 500 ppm ([9]; 72 h)

Cc1cccc(C)c1NC(=S)N/N=C/c1ccc2c(ccc3c2ncn3-c2ccc(C(F)(F)F)cc2)c1 [C-86, 1-(2,6-dimethylphenyl)-3-[(E)-[3-[4-(trifluoromethyl)phenyl]benzo[e]benzimidazol-7-yl]methyleneamino]thiourea]
≥ 75%: mortality at 800 ppm [1, 13] | mortality at 300 ppm [2, 14] | mortality at 2500 ppm [3, 15] | mortality at 800 ppm [4, 13] | mortality at 800 ppm [5] | mortality at 500 ppm [6] | mortality at 800 ppm [7, 13] | mortality at 800 ppm [11] | mortality at 500 ppm [9, 16]

Cc1ccccc1NC(=S)N(C)/N=C/c1ccc2c(ccc3c2ncn3-c2ccc(OC(F)(F)F)cc2)c1 [C-87, 1-methyl-3-(o-tolyl)-1-[(E)-[3-[4-(trifluoromethoxy)phenyl]benzo[e]benzimidazol-7-yl]methyleneamino]thiourea]
≥ 75%: mortality at 800 ppm [4, 13] | mortality at 800 ppm [5] | mortality at 800 ppm [7, 13] | mortality at 500 ppm [12] | mortality at 500 ppm [9, 16]
